Measured values published in patent US20130245355A1, “3-HETARYL-SUBSTITUTED PYRROLO[2,3 B]PYRIDINE DERIVATIVES AS PDK1 INHIBITORS” (MERCK PATENT GMBH, priority 2010, published 2013).

Key:
PDK1 [1] = biological target: T1, PDK1 (Homo sapiens, UniProt O15530); test: Test for the inhibition of PDK1 (flashplate, 33P-ATP); conditions: His6-PDK1 (1-50) 3.4 nM, 4 μM ATP, 30° C., 60 min; read-out: IC50 [PDK1] biochemical
T1 construct: His6 (N)
T1 sequence (O15530 51-556 limits assumed): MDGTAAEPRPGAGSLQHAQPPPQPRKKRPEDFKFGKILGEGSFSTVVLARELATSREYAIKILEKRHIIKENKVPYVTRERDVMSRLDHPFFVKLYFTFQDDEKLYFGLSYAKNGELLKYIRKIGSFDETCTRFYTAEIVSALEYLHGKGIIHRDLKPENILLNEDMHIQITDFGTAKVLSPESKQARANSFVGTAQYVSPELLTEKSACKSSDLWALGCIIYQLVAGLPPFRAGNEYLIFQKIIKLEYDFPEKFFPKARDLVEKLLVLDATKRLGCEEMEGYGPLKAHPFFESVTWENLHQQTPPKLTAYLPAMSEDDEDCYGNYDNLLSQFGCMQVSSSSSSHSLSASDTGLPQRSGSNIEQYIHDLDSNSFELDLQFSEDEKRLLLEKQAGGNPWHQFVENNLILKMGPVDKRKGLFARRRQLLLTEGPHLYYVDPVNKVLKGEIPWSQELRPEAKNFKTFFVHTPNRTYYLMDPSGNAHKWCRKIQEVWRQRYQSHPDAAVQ
Method: The experimental batches are carried out in a flashplate system with 384 wells/microtitration plate.
In each case, the PDK1 sample His6-PDK1 (1-50) (3.4 nM), the PDK1 substrate biotin-bA-bA-[…] (400 nM), 4 μM ATP (with 0.2μ Ci of ^33P-ATP/well) and the test substance in 50 μl of conventional experimental solution per well are incubated at 30° C. for 60 min. The test substances are employed in corresponding concentrations (if desired in a dilution series). The control is carried out without test substance. The reaction is stopped using standard methods and washed. The activity of the kinase is measured via the incorporated radioactivity in top count. In order to determine the non-specific kinase reaction (blank value), the experimental batches are carried out in the presence of 100 nM staurosporin.
The radioactivity (decompositions per minute) of the blank value (no use of test substance in the presence of staurosporin) is subtracted from all other radioactivity values. The controls (kinase activity without test substance) are set equal to 100 percent and all other radioactivity values (after subtracting the blank value) are expressed set in relation thereto (for example in % of the control).
IC50 values (50% inhibition) are determined with the aid of statistics programmes, such as, for example, RS1.

PDK1 [2] = biological target: T2, PDK1 (Homo sapiens, UniProt O15530); test: Cellular testing of PDK1 kinase inhibitors in PC3 cells (Luminex, phospho-T308-PKB); assay type: cell-based; conditions: 30 min, serum-free
T2 construct: endogenous in cells; host or cells: PC3 cells
T2 sequence (O15530 1-556): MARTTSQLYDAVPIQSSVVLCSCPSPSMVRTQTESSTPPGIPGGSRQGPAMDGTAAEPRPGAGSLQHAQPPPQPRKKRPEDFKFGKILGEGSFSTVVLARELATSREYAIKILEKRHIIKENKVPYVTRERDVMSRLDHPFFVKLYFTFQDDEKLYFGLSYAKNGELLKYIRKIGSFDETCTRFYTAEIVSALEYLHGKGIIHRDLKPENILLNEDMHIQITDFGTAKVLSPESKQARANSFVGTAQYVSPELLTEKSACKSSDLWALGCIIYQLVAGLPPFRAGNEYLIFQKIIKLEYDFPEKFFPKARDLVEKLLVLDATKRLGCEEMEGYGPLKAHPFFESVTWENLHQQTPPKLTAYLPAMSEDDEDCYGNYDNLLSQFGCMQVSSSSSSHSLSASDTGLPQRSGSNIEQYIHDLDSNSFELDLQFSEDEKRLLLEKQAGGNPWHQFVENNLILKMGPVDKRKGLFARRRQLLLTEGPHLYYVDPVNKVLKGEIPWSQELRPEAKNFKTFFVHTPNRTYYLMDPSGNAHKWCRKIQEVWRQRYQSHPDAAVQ
Method: Method for the Cellular Testing of PDK1 Kinase Inhibitors in PC3 Cells.
The cellular assay for the determination of the PDK1 kinase activity is carried out as a Luminex assay in the 96-well format. PC3 cells are sown at 20,000 cells per well in 100 μl of medium (45% of […]/45% of Ham's F12/10% of FCS) and incubated on the following day for 30 min with a serial dilution of the test substance (7 concentrations) under serum-free conditions. The cells are subsequently lysed using 90 μl of lysis buffer (20 mM tris/HCl pH 8.0, 150 mM NaCl, 1% of NP40, 10% of glycerol, 1% of phosphatase inhibitor I, 1% of phosphatase inhibitor II, 0.1% of protease inhibitor cocktail III, 0.01% of benzonase) per well, and the lysates are separated off from insoluble cell constituents by means of centrifugation through a 96-well filter plate (0.65 μm). The lysates are incubated overnight at 4° C. with shaking with Luminex beads to which an anti-total PKB antibody is coupled. The detection is carried out on the following day by addition of a phospho-T308-PKB antibody and a species-specific […] secondary antibody. The detection of phospho T308-PKB is carried out by measurement in a Luminex100 instrument by determination of 100 events per cavity in a measurement time of 60 sec. As pharmacological blank, the signals obtained from cells which have been treated with 10 μM staurosporin are subtracted from all other batches. The control value used for maximum phosphorylation of PKB on T308 are the signals from cells which have only been treated with the solvent (0.3% of DMSO). The values of the batches treated with test substance are calculated therefrom as percentage of control, and IC50 values are determined by means of RS 1.

Compound | IC50 (PDK1 [1]) [nM] | IC50 (PDK1 [2]) [nM]
Cn1cc(-c2cnc3[nH]cc(-c4nnc(C(O)c5ccc(F)cc5)o4)c3c2)cn1 (stereo not drawn) [A57, (4-fluorophenyl)-{5-[5-(1-methyl-1H-pyrazol-4-yl)-1H-pyrrolo[2,3-b]pyridin-3-yl]-1,3,4-oxadiazol-2-yl}methanol] | 0.5 to 1000 | 1000 to 10000
Cn1cc(-c2cnc3[nH]cc(-c4nnc(C(O)c5cccc(Cl)c5)o4)c3c2)cn1 (stereo not drawn) [A59] | 0.5 to 1000 | 0.5 to 1000
Cn1cc(-c2cnc3[nH]cc(-c4nnc(C(O)c5ccc(Cl)cc5)o4)c3c2)cn1 (stereo not drawn) [A60] | 1000 to 10000 | 1000 to 10000
Cn1cc(-c2cnc3[nH]cc(-c4cc(C(C)(O)c5cccc(F)c5F)on4)c3c2)cn1 (stereo not drawn) [A61] | 0.5 to 1000 | 0.5 to 1000
Cn1cc(-c2cnc3[nH]cc(-c4cc(C(C)(O)c5cccc(F)c5F)[nH]n4)c3c2)cn1 (stereo not drawn) [A64] | 0.5 to 1000 | 0.5 to 1000
Cn1cc(-c2cnc3[nH]cc(-c4nnc(C(O)c5cccc(Cl)c5Cl)o4)c3c2)cn1 (stereo not drawn) [A65] | 0.5 to 1000 | 0.5 to 1000
Cn1cc(-c2cnc3[nH]cc(-c4nc(C(C)(O)c5ccccc5)no4)c3c2)cn1 (stereo not drawn) [A67] | 1000 to 10000 | 0.5 to 1000
Cn1cc(-c2cnc3[nH]cc(-c4cc(C(C)(O)c5ccccc5)n(CCO)n4)c3c2)cn1 (stereo not drawn) [A68] | 0.5 to 1000 | 1000 to 10000
C=C(c1ccccc1)c1cc(-c2c[nH]c3ncc(-c4cnn(C)c4)cc23)nn1CCO [A69] | 1000 to 10000 | 1000 to 10000
Cn1cc(-c2cnc3[nH]cc(-c4nnc(C5(c6ccccc6F)CC5)o4)c3c2)cn1 [A70] | 0.5 to 1000 | 0.5 to 1000
Cn1cc(-c2cnc3[nH]cc(-c4nc(C(C)(O)c5cccc(F)c5)no4)c3c2)cn1 (stereo not drawn) [A72] | 0.5 to 1000 | 0.5 to 1000
Cn1cc(-c2cnc3[nH]cc(-c4cc(C(O)c5ccccc5)[nH]n4)c3c2)cn1 (stereo not drawn) [A74] | 0.5 to 1000 | 0.5 to 1000
Cn1cc(-c2cnc3[nH]cc(-c4cc(C(O)c5ccccc5)on4)c3c2)cn1 (stereo not drawn) [A75] | 0.5 to 1000 | 0.5 to 1000
Cn1cc(-c2cnc3[nH]cc(-c4nc(C(C)(O)c5cccc(F)c5F)no4)c3c2)cn1 (stereo not drawn) [A78] | 0.5 to 1000 | 0.5 to 1000
Cn1cc(-c2cnc3[nH]cc(-c4nc(C(C)(O)c5ccccc5Cl)no4)c3c2)cn1 (stereo not drawn) [A79] | 1000 to 10000 | 0.5 to 1000
Cn1cc(-c2cnc3[nH]cc(-c4nc(C(C)(O)c5cccc(Cl)c5)no4)c3c2)cn1 (stereo not drawn) [A80] | 0.5 to 1000 | 0.5 to 1000
COC(c1ccccc1)c1nnc(-c2c[nH]c3ncc(-c4cnn(C)c4)cc23)o1 (stereo not drawn) [A81] | 0.5 to 1000 | 1000 to 10000
Cn1cc(-c2cnc3[nH]cc(-c4nnc(C(F)c5cccc(F)c5)o4)c3c2)cn1 (stereo not drawn) [A82] | 1000 to 10000 | 1000 to 10000
Cn1cc(-c2cnc3[nH]cc(-c4nnc(C5(c6ccccc6Cl)CC5)o4)c3c2)cn1 [A83] | 0.5 to 1000 | 0.5 to 1000
Cn1cc(-c2cnc3[nH]cc(-c4cc(C(O)c5ccccc5)n(C)n4)c3c2)cn1 (stereo not drawn) [A84] | 0.5 to 1000 | 1000 to 10000
Cc1cc(C2(c3nnc(-c4c[nH]c5ncc(-c6cnn(C)c6)cc45)o3)CC2)ccn1 [A85, 5-(1-methyl-1H-pyrazol-4-yl)-3-{5-[1-(2-methylpyridin-4-yl)-cyclopropyl]-1,3,4-oxadiazol-2-yl}-1H-pyrrolo[2,3-b]pyridine] | 1000 to 10000 | 1000 to 10000
Cn1cc(-c2cnc3[nH]cc(-c4nnc(C(O)c5ccccc5C(F)(F)F)o4)c3c2)cn1 (stereo not drawn) [A86] | 0.5 to 1000 | 0.5 to 1000
Cn1cc(-c2cnc3[nH]cc(-c4n[nH]c(C(O)c5ccccc5Cl)n4)c3c2)cn1 (stereo not drawn) [A87, (2-chlorophenyl)-{5-[5-(1-methyl-1H-pyrazol-4-yl)-1H-pyrrolo[2,3-b]pyridin-3-yl]-2H-1,2,4-triazol-3-yl}-methanol] | 0.5 to 1000 | 1000 to 10000
Cn1cc(-c2cnc3[nH]cc(-c4cc(C(C)(O)c5ccccc5Cl)[nH]n4)c3c2)cn1 (stereo not drawn) [A88] | 0.5 to 1000 | 1000 to 10000
Cn1cc(-c2cnc3[nH]cc(-c4cc(C(C)(O)c5ccccc5Cl)on4)c3c2)cn1 (stereo not drawn) [A89] | 0.5 to 1000 | 0.5 to 1000
Cn1cc(-c2cnc3[nH]cc(-c4nnc(C5(c6ccnc(Cl)c6)CC5)o4)c3c2)cn1 [A91] | 1000 to 10000 | 1000 to 10000
Cn1cc(-c2cnc3[nH]cc(-c4cc(C(C)(O)c5ccc(=O)n(C)n5)on4)c3c2)cn1 (stereo not drawn) [A99, 6-(1-hydroxy-1-{3-[5-(1-methyl-1H-pyrazol-4-yl)-1H-pyrrolo-[2,3-b]pyridin-3-yl]isoxazol-5-yl}ethyl)-2-methyl-2H-pyridazin-3-one] | 0.5 to 1000 | 1000 to 10000

Now from value to compound:

IC50 (PDK1 [1]) [nM] | IC50 (PDK1 [2]) [nM] | Compound
0.5 to 1000 | 1000 to 10000 | Cn1cc(-c2cnc3[nH]cc(-c4n[nH]c(C(C)(O)c5ccccc5)n4)c3c2)cn1 (stereo not drawn) [A42, 1-{5-[5-(1-methyl-1H-pyrazol-4-yl)-1H-pyrrolo[2,3-b]pyridin-3-yl]-2H-1,2,4-triazol-3-yl}-1-phenylethanol]
0.5 to 1000 | 1000 to 10000 | Cn1cc(-c2cnc3[nH]cc(-c4nnc(C(O)c5ccccc5F)o4)c3c2)cn1 (stereo not drawn) [A43]
0.5 to 1000 | 1000 to 10000 | Cn1cc(-c2cnc3[nH]cc(-c4n[nH]c(C(C)(O)c5cccc(F)c5)n4)c3c2)cn1 (stereo not drawn) [A44]
0.5 to 1000 | 1000 to 10000 | Cn1cc(-c2cnc3[nH]cc(-c4nnc(C(C)(O)c5ccccc5)o4)c3c2)cn1 (stereo not drawn) [A45]
0.5 to 1000 | 0.5 to 1000 | Cn1cc(-c2cnc3[nH]cc(-c4nnc(C(O)c5cccc(F)c5F)o4)c3c2)cn1 (stereo not drawn) [A46]
0.5 to 1000 | 0.5 to 1000 | Cn1cc(-c2cnc3[nH]cc(-c4nnc(C(O)c5cccc(F)c5)o4)c3c2)cn1 (stereo not drawn) [A47]
0.5 to 1000 | 0.5 to 1000 | Cn1cc(-c2cnc3[nH]cc(-c4nnc(C(C)(O)c5ccccc5F)o4)c3c2)cn1 (stereo not drawn) [A48]
0.5 to 1000 | 1000 to 10000 | Cn1cc(-c2cnc3[nH]cc(-c4n[nH]c(C(C)(O)c5ccccc5F)n4)c3c2)cn1 (stereo not drawn) [A49]
0.5 to 1000 | 1000 to 10000 | Cn1cc(-c2cnc3[nH]cc(-c4noc(C(C)(O)c5ccccc5F)n4)c3c2)cn1 (stereo not drawn) [A50]
0.5 to 1000 | 1000 to 10000 | Cn1cc(-c2cnc3[nH]cc(-c4noc(C(C)(O)c5cccc(F)c5)n4)c3c2)cn1 (stereo not drawn) [A51]
0.5 to 1000 | 1000 to 10000 | Cn1cc(-c2cnc3[nH]cc(-c4noc(C(C)(O)c5cccc(F)c5F)n4)c3c2)cn1 (stereo not drawn) [A52]
0.5 to 1000 | 1000 to 10000 | Cn1cc(-c2cnc3[nH]cc(-c4n[nH]c(C(C)(O)c5cccc(F)c5F)n4)c3c2)cn1 (stereo not drawn) [A54]
